Patent publication US20080009418A1, “Selective Inhibitors” (Alchemia LTD., priority 2004, published 2008)

Columns and labels:
Human neurokinin (NK1) = molecular target: T1, Human neurokinin (NK1) (Homo sapiens, UniProt P25103); assay: Radioligand binding, human neurokinin NK1 membranes, filtration, [125I]-Substance P; conditions: compound at 10 μM, [125I]-Substance P
T1 construct: purchased Perkin Elmer Biosignal
How it was run: (§1)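 Membranes from cloned human receptors were incubated with compound and radioligand for 1 hour at room temperature. Bound ligand was collected on 0.3% PEI-soaked filters, washed with cold 50 mM Tris-HCl pH 7.4, and counted by scintillation. Percent inhibition was computed against DMSO totals and reference-ligand nonspecific wells.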

Human δ-opioid (DOP) = molecular target: T2, Human δ-opioid (DOP) (Homo sapiens, UniProt P41143); assay: Radioligand binding, human δ-opioid (DOP) membranes, FlashPlate, [3H]-Bremazocine; conditions: compound at 10 μM, [3H]-Bremazocine
T2 construct: purchased Perkin Elmer Biosignal
How it was run: (§2)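 Cloned human receptor membranes were coated onto FlashPlate wells and incubated with radioligand and compound (added from a 0.5 mM DMSO daughter plate) for 1 hour at room temperature in the dark. Scintillation counting gave percent inhibition, with DMSO defining total and reference ligand defining non-specific binding.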

Human Melanocortin (MC3) = molecular target: T3, Human Melanocortin (MC3) (Homo sapiens, UniProt P41968); assay: Radioligand binding, human melanocortin MC3 membranes, FlashPlate, [125I]-NDP-αMSH; conditions: compound at 10 μM, [125I]-NDP-αMSH
T3 construct: purchased Perkin Elmer Biosignal
How it was run: as §2

Human melanocortin (MC5) = molecular target: T4, Human melanocortin (MC5) (Homo sapiens, UniProt P33032); assay: Radioligand binding, human melanocortin MC5 membranes, FlashPlate, [125I]-NDP-αMSH; conditions: compound at 10 μM, [125I]-NDP-αMSH
T4 construct: purchased Perkin Elmer Biosignal
How it was run: as §2

Human μ-opioid (MOP) = molecular target: T5, Human μ-opioid (MOP) (Homo sapiens, UniProt P35372); assay: Radioligand binding, human μ-opioid (MOP) membranes, FlashPlate, [3H]-Naloxone; conditions: compound at 10 μM, [3H]-Naloxone
T5 construct: purchased Perkin Elmer Biosignal
How it was run: as §2

[1] = molecular target: T6, Human melanin-concentrating hormone (MCH1) (Homo sapiens, UniProt Q99705); assay: Radioligand binding, human melanin-concentrating hormone MCH1 membranes, FlashPlate, [125I]-S36057; conditions: compound at 10 μM; for A6 radioligand binding, percentage inhibition: [125I]-S36057
T6 construct: purchased Perkin Elmer Biosignal
How it was run: as §2

Human opioid (ORL1) = molecular target: T7, Human opioid (ORL1) (Homo sapiens, UniProt P41146); assay: Radioligand binding, human opioid ORL1 membranes, FlashPlate, [125I]-Nociceptin; conditions: compound at 10 μM, [125I]-Nociceptin
T7 construct: purchased Perkin Elmer Biosignal
How it was run: as §2

Human Melanocortin (MC4) = molecular target: T8, Human Melanocortin (MC4) (Homo sapiens, UniProt P32245); assay: Radioligand binding, human melanocortin MC4 membranes, FlashPlate, [125I]-NDP-αMSH; conditions: compound at 10 μM, [125I]-NDP-αMSH
T8 construct: purchased Perkin Elmer Biosignal
How it was run: as §2

Mouse urotensin (mUR2) = molecular target: T9, Mouse urotensin (mUR2) (Mus musculus, UniProt Q8VIH9); assay: Radioligand binding, mouse urotensin mUR2 membranes, FlashPlate, [125I]-Urotensin II; conditions: compound at 10 μM, [125I]-Urotensin II
T9 construct: purchased Perkin Elmer Biosignal
T9 sequence (Q8VIH9 1-385): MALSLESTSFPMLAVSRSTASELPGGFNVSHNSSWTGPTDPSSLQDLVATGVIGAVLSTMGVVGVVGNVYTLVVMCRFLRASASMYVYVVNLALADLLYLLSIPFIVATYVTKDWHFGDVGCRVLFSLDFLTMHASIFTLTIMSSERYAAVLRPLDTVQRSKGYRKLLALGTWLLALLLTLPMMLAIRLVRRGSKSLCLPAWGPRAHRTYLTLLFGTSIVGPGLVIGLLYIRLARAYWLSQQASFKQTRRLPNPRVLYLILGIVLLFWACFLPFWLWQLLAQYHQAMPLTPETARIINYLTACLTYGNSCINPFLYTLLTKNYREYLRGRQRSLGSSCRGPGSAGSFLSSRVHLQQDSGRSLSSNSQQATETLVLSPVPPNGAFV
How it was run: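 Cloned mouse urotensin (mUR2) receptor membranes from Perkin Elmer Biosignal were immobilized in FlashPlate microplates using a proprietary coating. Each well got 19.5 μl buffer, then 0.5 μl of DMSO, reference ligand, or compound. Adding 5 μl of [125I]-Urotensin II, diluted to 5× final concentration in binding buffer, started binding. Plates were sealed with TopSeal-A and incubated 1 hour at room temperature in the dark. Wells were counted for 30 seconds each on a TopCount after a 60-second delay, and percentage inhibition was calculated.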

Human κ-Opioid (KOP) = molecular target: T10, Human κ-Opioid (KOP) (Homo sapiens, UniProt P41145); assay: Radioligand binding, human κ-opioid (KOP) membranes, filtration, [3H]-Diprenorphine; conditions: compound at 10 μM, [3H]-Diprenorphine
T10 construct: purchased Perkin Elmer Biosignal
How it was run: as §1

[2] = molecular target: T11, Human neuropeptide Y (NPY-Y1) (Homo sapiens, UniProt P25929); assay: Radioligand binding, human neuropeptide Y NPY-Y1 membranes, FlashPlate, [125I]-PYY; conditions: compound at 10 μM, [125I]-PYY
T11 construct: purchased Perkin Elmer Biosignal
T11 sequence (P25929 1-384): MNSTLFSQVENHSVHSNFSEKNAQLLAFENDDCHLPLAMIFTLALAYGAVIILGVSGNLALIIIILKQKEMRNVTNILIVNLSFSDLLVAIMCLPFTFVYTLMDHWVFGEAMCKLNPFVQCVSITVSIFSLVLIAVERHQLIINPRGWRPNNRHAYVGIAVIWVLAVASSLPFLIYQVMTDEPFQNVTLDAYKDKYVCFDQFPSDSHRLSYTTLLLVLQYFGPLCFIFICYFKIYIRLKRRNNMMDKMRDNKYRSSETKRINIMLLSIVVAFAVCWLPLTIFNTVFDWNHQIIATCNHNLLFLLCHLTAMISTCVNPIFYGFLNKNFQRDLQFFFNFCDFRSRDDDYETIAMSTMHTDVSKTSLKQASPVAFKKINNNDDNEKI
How it was run: as §2

T10 sequence (P41145 whole entry): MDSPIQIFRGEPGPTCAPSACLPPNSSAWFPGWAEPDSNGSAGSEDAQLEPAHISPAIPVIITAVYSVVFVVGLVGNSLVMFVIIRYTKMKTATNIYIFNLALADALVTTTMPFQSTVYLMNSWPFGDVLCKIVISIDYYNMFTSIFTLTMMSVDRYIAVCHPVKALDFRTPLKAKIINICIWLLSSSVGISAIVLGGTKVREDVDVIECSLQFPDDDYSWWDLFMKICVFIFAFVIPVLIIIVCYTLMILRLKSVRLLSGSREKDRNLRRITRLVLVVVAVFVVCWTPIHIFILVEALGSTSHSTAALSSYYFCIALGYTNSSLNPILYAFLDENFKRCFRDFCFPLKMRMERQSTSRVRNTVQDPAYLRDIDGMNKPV
T6 sequence (Q99705 whole entry): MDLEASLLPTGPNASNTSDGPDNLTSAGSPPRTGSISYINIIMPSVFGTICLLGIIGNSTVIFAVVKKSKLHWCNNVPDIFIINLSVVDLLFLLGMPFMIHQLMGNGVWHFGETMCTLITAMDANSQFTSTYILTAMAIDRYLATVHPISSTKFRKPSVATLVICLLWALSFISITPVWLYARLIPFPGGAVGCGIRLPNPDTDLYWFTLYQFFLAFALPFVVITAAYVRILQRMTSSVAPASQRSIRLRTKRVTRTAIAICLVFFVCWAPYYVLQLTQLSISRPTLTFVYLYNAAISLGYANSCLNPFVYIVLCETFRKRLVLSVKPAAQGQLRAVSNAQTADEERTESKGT
T5 sequence (P35372 whole entry): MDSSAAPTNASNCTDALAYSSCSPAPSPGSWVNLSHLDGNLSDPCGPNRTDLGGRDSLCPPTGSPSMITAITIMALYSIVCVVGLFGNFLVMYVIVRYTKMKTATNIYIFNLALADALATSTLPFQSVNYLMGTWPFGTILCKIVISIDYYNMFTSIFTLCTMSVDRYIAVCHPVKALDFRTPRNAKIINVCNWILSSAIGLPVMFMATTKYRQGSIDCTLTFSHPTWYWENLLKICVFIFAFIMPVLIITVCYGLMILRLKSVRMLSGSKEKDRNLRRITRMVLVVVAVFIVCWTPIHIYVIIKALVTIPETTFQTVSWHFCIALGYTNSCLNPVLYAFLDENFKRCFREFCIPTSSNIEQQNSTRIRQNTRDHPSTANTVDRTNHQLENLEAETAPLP
T2 sequence (P41143 whole entry): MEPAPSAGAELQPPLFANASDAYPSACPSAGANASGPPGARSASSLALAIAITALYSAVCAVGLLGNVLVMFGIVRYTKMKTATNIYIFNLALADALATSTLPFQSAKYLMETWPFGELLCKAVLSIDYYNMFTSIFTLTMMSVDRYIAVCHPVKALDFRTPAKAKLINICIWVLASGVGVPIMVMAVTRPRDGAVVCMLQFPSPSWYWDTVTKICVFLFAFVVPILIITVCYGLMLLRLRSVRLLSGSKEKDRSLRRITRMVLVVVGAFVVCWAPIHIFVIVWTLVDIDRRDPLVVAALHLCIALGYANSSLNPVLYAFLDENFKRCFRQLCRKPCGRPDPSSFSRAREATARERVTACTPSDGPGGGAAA
T7 sequence (P41146 whole entry): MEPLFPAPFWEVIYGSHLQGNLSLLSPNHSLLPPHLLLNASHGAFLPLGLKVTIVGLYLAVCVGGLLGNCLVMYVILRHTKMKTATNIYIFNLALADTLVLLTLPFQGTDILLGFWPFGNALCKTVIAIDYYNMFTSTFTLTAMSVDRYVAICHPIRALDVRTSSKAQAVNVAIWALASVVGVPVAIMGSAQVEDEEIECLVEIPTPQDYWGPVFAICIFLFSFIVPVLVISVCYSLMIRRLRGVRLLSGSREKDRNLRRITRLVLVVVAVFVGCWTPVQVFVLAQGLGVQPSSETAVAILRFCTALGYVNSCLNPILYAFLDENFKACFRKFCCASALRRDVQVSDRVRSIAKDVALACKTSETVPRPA
T8 sequence (P32245 whole entry): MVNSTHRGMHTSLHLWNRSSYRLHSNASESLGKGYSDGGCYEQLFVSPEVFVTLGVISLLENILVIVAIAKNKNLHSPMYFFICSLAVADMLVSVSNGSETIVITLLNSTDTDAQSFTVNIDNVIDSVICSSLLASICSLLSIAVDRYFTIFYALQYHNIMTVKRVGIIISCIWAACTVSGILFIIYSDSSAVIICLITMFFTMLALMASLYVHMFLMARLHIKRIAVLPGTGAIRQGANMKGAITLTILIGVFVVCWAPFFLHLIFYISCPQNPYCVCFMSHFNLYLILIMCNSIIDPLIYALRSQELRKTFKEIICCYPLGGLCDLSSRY
T1 sequence (P25103 whole entry): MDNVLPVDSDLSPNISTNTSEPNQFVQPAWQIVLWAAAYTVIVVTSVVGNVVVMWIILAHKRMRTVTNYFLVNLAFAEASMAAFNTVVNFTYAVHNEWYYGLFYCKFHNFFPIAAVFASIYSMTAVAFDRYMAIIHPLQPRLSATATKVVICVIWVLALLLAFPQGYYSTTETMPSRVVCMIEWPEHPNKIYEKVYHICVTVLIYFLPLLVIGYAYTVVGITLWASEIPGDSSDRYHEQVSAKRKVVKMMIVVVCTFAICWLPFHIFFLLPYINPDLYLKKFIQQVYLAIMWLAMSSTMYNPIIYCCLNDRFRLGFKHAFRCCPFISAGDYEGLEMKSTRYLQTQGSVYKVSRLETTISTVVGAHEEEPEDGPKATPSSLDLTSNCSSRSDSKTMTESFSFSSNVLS
T4 sequence (P33032 whole entry): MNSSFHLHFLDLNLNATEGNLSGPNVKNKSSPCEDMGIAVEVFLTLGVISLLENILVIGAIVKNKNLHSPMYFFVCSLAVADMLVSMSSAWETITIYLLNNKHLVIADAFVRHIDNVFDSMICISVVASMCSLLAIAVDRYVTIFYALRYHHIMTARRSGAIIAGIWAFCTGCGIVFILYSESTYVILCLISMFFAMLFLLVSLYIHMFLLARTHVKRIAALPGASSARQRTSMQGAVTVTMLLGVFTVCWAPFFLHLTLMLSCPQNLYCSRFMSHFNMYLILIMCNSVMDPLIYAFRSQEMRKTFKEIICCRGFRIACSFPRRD
T3 sequence (P41968 whole entry): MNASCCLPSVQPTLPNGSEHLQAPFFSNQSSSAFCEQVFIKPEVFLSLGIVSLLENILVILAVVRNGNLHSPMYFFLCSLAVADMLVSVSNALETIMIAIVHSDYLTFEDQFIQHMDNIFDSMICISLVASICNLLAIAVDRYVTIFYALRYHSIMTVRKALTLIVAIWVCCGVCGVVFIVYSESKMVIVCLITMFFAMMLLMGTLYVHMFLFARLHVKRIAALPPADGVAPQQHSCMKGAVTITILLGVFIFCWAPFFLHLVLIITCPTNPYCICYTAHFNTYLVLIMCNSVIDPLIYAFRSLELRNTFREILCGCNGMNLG

Row | SMILES | A8 radioligand binding, percentage inhibition (Human neurokinin (NK1)) | A1 radioligand binding, percentage inhibition (Human δ-opioid (DOP)) | A3 radioligand binding, percentage inhibition (Human Melanocortin (MC3)) | A5 radioligand binding, percentage inhibition (Human melanocortin (MC5)) | A7 radioligand binding, percentage inhibition (Human μ-opioid (MOP)) | A6 radioligand binding, percentage inhibition [1] | A10 radioligand binding, percentage inhibition (Human opioid (ORL1)) | A4 radioligand binding, percentage inhibition (Human Melanocortin (MC4)) | A11 radioligand binding, percentage inhibition (Mouse urotensin (mUR2)) | A2 radioligand binding, percentage inhibition (Human κ-Opioid (KOP)) | A9 radioligand binding, percentage inhibition [2] | A8: inhibition of radioligand binding (Human neurokinin (NK1); filtration) | A1: inhibition of radioligand binding (Human δ-opioid (DOP); FlashPlate) | A3: inhibition of radioligand binding (Human Melanocortin (MC3); FlashPlate) | A5: inhibition of radioligand binding (Human melanocortin (MC5); FlashPlate) | A7: inhibition of radioligand binding (Human μ-opioid (MOP); FlashPlate) | A6: inhibition of radioligand binding ([1]; [125I]-S36057, FlashPlate) | A10: inhibition of radioligand binding (Human opioid (ORL1); FlashPlate) | A4: inhibition of radioligand binding (Human Melanocortin (MC4); FlashPlate) | A11: inhibition of radioligand binding (Mouse urotensin (mUR2); FlashPlate) | also measured
1 | CO[C@H]1[C@H](O)[C@@H](COCc2ccc(-c3ccccc3)cc2)OC(OCc2ccc(Cl)cc2)[C@@H]1NC(=O)CCNC(=N)N (stereo partly shown) [compound 94] | + (“+” indicates greater than 50% inhibition at 10 μM) | − (“−” indicates less than 50% inhibition at 10 μM) | + (“+” indicates greater than 50% inhibition at 10 μM) | + (“+” indicates greater than 50% inhibition at 10 μM) | − (“−” indicates less than 50% inhibition at 10 μM) | + (“+” indicates greater than 50% inhibition at 10 μM) | + (“+” indicates greater than 50% inhibition at 10 μM) | + (“+” indicates greater than 50% inhibition at 10 μM) | − (“−” indicates less than 50% inhibition at 10 μM) | − (“−” indicates less than 50% inhibition at 10 μM) | + (“+” indicates greater than 50% inhibition at 10 μM) | – | – | – | – | – | – | – | – | – | –
2 | CSC1OC(COCc2ccccc2)C(O)C(OCc2ccc(Cl)cc2)C1NC(=O)CCCNC(=N)N (stereo not shown) [compound 268] | – | – | – | – | – | – | – | – | – | – | – | + (“+” indicates greater than 50% inhibition at 10 μM) | − (“−” indicates less than 50% inhibition at 10 μM) | − (“−” indicates less than 50% inhibition at 10 μM) | + (“+” indicates greater than 50% inhibition at 10 μM) | − (“−” indicates less than 50% inhibition at 10 μM) | − (“−” indicates less than 50% inhibition at 10 μM) | − (“−” indicates less than 50% inhibition at 10 μM) | − (“−” indicates less than 50% inhibition at 10 μM) | − (“−” indicates less than 50% inhibition at 10 μM) | A2: inhibition of radioligand binding (Human κ-Opioid (KOP); filtration): − (“−” indicates less than 50% inhibition at 10 μM); A9: inhibition of radioligand binding ([2]; FlashPlate): − (“−” indicates less than 50% inhibition at 10 μM)
3 | N=C(N)NCCC(=O)NC1C(OCc2ccc(-c3ccccc3)cc2)OC(COCc2ccccc2)C(O)C1OCc1ccc(Cl)cc1 (stereo not shown) [compound 409] | – | – | – | – | – | – | – | – | – | – | – | – | – | – | – | – | – | – | – | – | A8: inhibition of radioligand binding (Human neurokinin (NK1); human NK1 membranes): + (“+” indicates greater than 50% inhibition at 10 μM); A1: inhibition of radioligand binding (Human δ-opioid (DOP); human DOP membranes): − (“−” indicates less than 50% inhibition at 10 μM); A3: inhibition of radioligand binding (Human Melanocortin (MC3); human MC3 membranes): + (“+” indicates greater than 50% inhibition at 10 μM); A5: inhibition of radioligand binding (Human melanocortin (MC5); human MC5 membranes): + (“+” indicates greater than 50% inhibition at 10 μM); A7: inhibition of radioligand binding (Human μ-opioid (MOP); human MOP membranes): − (“−” indicates less than 50% inhibition at 10 μM); A6: inhibition of radioligand binding ([1]; [125I]-S36057, human MCH1 membranes): + (“+” indicates greater than 50% inhibition at 10 μM); A10: inhibition of radioligand binding (Human opioid (ORL1); human ORL1 membranes): + (“+” indicates greater than 50% inhibition at 10 μM); A4: inhibition of radioligand binding (Human Melanocortin (MC4); human MC4 membranes): + (“+” indicates greater than 50% inhibition at 10 μM); A11: inhibition of radioligand binding (Mouse urotensin (mUR2); mouse mUR2 membranes): − (“−” indicates less than 50% inhibition at 10 μM); A2: inhibition of radioligand binding (Human κ-Opioid (KOP); human KOP membranes): − (“−” indicates less than 50% inhibition at 10 μM); A9: inhibition of radioligand binding ([2]; human NPY-Y1 membranes): − (“−” indicates less than 50% inhibition at 10 μM)
4 | CO[C@H]1[C@H](O)[C@@H](COCc2ccc(-c3ccccc3)cc2)OC(OCc2ccc(Cl)cc2)[C@@H]1NC(=O)CCCNC(=N)N (stereo partly shown) [compound 96] | + (“+” indicates greater than 50% inhibition at 10 μM) | − (“−” indicates less than 50% inhibition at 10 μM) | + (“+” indicates greater than 50% inhibition at 10 μM) | + (“+” indicates greater than 50% inhibition at 10 μM) | − (“−” indicates less than 50% inhibition at 10 μM) | + (“+” indicates greater than 50% inhibition at 10 μM) | + (“+” indicates greater than 50% inhibition at 10 μM) | + (“+” indicates greater than 50% inhibition at 10 μM) | − (“−” indicates less than 50% inhibition at 10 μM) | + (“+” indicates greater than 50% inhibition at 10 μM) | + (“+” indicates greater than 50% inhibition at 10 μM) | – | – | – | – | – | – | – | – | – | –
5 | COCC1OC(OCc2ccc(Cl)cc2)C(NC(=O)CCN)C(OCc2ccc(Cl)cc2)C1O (stereo not shown) [compound 201] | – | – | – | – | – | – | – | – | – | – | – | + (“+” indicates greater than 50% inhibition at 10 μM) | − (“−” indicates less than 50% inhibition at 10 μM) | − (“−” indicates less than 50% inhibition at 10 μM) | + (“+” indicates greater than 50% inhibition at 10 μM) | − (“−” indicates less than 50% inhibition at 10 μM) | − (“−” indicates less than 50% inhibition at 10 μM) | − (“−” indicates less than 50% inhibition at 10 μM) | − (“−” indicates less than 50% inhibition at 10 μM) | − (“−” indicates less than 50% inhibition at 10 μM) | A2: inhibition of radioligand binding (Human κ-Opioid (KOP); filtration): − (“−” indicates less than 50% inhibition at 10 μM); A9: inhibition of radioligand binding ([2]; FlashPlate): − (“−” indicates less than 50% inhibition at 10 μM)
